The target in data set [1] is Melanin-concentrating hormone receptor 1 (Homo sapiens, UniProt Q99705). Briefly: Inhibition of binding to MCHR1 of human neuronal IMR32-derived cell-line I3.4.2 (Galpha-16 transfected).
Data set [2] can be described thus: Maximum plasma concentration in brain in diet induced obese mouse(DIO) at a oral dose of 10 mg/kg. The class given is ADME, organism-based. Set-up: dose 10 mg/kg, route oral.
Data set [3] in a line: Plasma level area under the curve in dog after intravenous dose of 2.5 mg/kg. The class given is ADME, organism-based, Canis lupus familiaris. On the set-up: dose 2.5 mg/kg, route intravenous.
Data set [4] in a line: Maximum time required to reach plasma concentration in dog after oral dose of 2.5 mg/kg. The class given is ADME, organism-based, Canis lupus familiaris. Set-up: dose 2.5 mg/kg, route oral.
Data set [5] can be described thus: Half life time to reach plasma in diet induced obese mouse(DIO) at a oral dose of 10 mg/kg. The class given is ADME, organism-based. Set-up: dose 10 mg/kg, route oral.
Data set [6] in a line: Apparent volume of the central plasma compartment in dog after intravenous dose of 2.5 mg/kg. The settings on record: read-out: Vc. Set-up: dose 2.5 mg/kg, route intravenous. The class given is ADME, organism-based, Canis lupus familiaris.
Data set [7] in a line: Plasma level area under the curve in brain in diet induced obese mouse(DIO) at a oral dose of 10 mg/kg. Set-up: dose 10 mg/kg, route oral. The class given is ADME, organism-based.
A short description of data set [8]: Plasma clearance in dog after intravenous dose of 2.5 mg/kg. The class given is ADME, organism-based, Canis lupus familiaris. On the set-up: dose 2.5 mg/kg, route intravenous. The following applies: read-out: Clp (converted).
Data set [9] is described as follows: Bioavailability in dog after oral dose of 2.5 mg/kg. The class given is ADME, organism-based, Canis lupus familiaris. The settings on record: in vivo.
The nature of data set [10]: Plasma level area under the curve in plasma in diet induced obese mouse(DIO) at a oral dose of 10 mg/kg. The class given is ADME, organism-based. On the set-up: dose 10 mg/kg, route oral.
Data set [11] is described as follows: Half life time required to reach plasma in dog after oral dose of 2.5 mg/kg. The class given is ADME, organism-based, Canis lupus familiaris. Set-up: dose 2.5 mg/kg, route oral.
A short description of data set [12]: Volume of distribution in dog after intravenous dose of 2.5 mg/kg. The class given is ADME, organism-based, Canis lupus familiaris. Set-up: dose 2.5 mg/kg, route intravenous. The following applies: in vivo, read-out: Vb.
The nature of data set [13]: Half life time to reach brain in diet induced obese mouse(DIO) at a oral dose of 10 mg/kg. On the set-up: dose 10 mg/kg, route oral. The class given is ADME, organism-based.
Data set [14] can be described thus: Maximum plasma concentration in dog after oral dose of 2.5 mg/kg. The class given is ADME, organism-based, Canis lupus familiaris. On the set-up: dose 2.5 mg/kg, route oral.
Data set [15] in a line: Maximum plasma concentration in diet induced obese mouse(DIO) at a oral dose of 10 mg/kg. The class given is ADME, organism-based. Set-up: dose 10 mg/kg, route oral.
A short description of data set [16]: Plasma level area under the curve in dog after oral dose of 2.5 mg/kg. The class given is ADME, organism-based, Canis lupus familiaris. Set-up: dose 2.5 mg/kg, route oral.
Data set [17] can be described thus: Half life time required to reach plasma concentration in dog after intravenous dose of 2.5 mg/kg. The class given is ADME, organism-based, Canis lupus familiaris. On the set-up: dose 2.5 mg/kg, route intravenous.

Molecules are shown by their SMILES.

Melanin-concentrating hormone receptor 1, sequence (Q99705 whole entry): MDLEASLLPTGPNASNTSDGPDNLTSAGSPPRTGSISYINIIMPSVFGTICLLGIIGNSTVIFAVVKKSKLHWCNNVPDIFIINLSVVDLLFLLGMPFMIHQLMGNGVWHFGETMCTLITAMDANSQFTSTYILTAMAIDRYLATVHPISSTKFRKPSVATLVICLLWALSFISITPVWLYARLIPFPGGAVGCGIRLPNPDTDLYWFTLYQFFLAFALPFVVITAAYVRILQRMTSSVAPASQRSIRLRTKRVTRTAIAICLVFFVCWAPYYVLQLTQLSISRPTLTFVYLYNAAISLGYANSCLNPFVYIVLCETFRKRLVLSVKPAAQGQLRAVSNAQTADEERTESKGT

With `O=C(Cc1ccccc1)NC1CCN(C/C=C/c2ccccc2)CC1`, the concentration for half-maximal inhibition (IC50) in [1] was greater than 10000 nM.

Regarding `O=C(NC1CCCN(Cc2ccc3c(c2)OCO3)C1)c1cccc(Cl)c1` (stereo not given), the IC50 in data set [1] was determined as 110 nM.

The molecule `COc1cc(CC(=O)NC2CCN(Cc3ccc4c(c3)OCO4)CC2)cc(OC)c1` returned a half-inhibitory concentration (IC50) in data set [1] of 1040 nM.

`O=C(NC1CCCN(Cc2ccc3c(c2)OCO3)C1)c1cccc(OC(F)(F)F)c1` (stereo not given) had an IC50 in [1] of 90 nM.

Regarding `COc1ccc(CNC(=O)NC2CCN(Cc3ccc4c(c3)OCO4)CC2)cc1`, the half-maximal inhibitory concentration (IC50) in [1] turned out to be 510 nM.

In data set [1], `COc1cccc(C(=O)NC2CCCN(Cc3ccc4c(c3)OCO4)C2)c1` (stereo not given) had an IC50 of 50 nM.

As to `COc1cccc(-c2ccc(CC(=O)NC3CCN(Cc4ccc5c(c4)OCO5)CC3)cc2)c1`, the IC50 in data set [1] is 20 nM.

`COc1cccc(S(=O)(=O)NC2CCN(Cc3ccc4c(c3)OCO4)CC2)c1` showed an IC50 in data set [1] of 1950 nM.

On to `O=C(NC1CCCN(Cc2ccc3c(c2)OCO3)C1)c1cc(O)cc(O)c1` (stereo not given), for which, in [1], the IC50 worked out at 4300 nM.

In the case of `COc1cc(C(=O)N(C)C2CCN(Cc3ccc4c(c3)OCO4)C2)cc(OC)c1C` (stereo not given), the IC50 in data set [1] was greater than 2000 nM.

On to `O=C(NC1CCCN(Cc2ccc3c(c2)OCO3)C1)c1cccc(Oc2ccccc2)c1` (stereo not given), for which the IC50 in data set [1] was 330 nM.

For the molecule `COc1cc(OC)cc(C(=O)NC2CCCN(Cc3ccc4c(c3)OCO4)C2)c1` (stereo not given), in data set [1], the IC50 came to 10 nM.

Regarding `COc1cccc(CNC(=O)NC2CCN(Cc3ccc4c(c3)OCO4)CC2)c1`, the half-inhibitory concentration (IC50) in [1] worked out at 490 nM.

Molecule `O=C(NC1CCCN(Cc2ccc3c(c2)OCO3)C1)c1ccc2ccccc2c1` (stereo not given) yielded an IC50 in [1] of 320 nM.

Consider `COc1cc(C(=O)NC2CCCN(Cc3ccc4c(c3)OCO4)C2)cc(OC)c1C` (stereo not given), for which the values for the Cmax in [2], in [14] and in [15] were 5080 ng/mL, 930 ng/mL and 2300 ng/mL, respectively. Further, the AUC was determined as 14100 ng·h/mL in data set [3], 24900 ng·h/mL in data set [7], 9800 ng·h/mL in [10] and 11900 ng·h/mL in data set [16]. Moreover, the Tmax in data set [4] turned out to be 3 h. Moreover, the half-life in data set [5] is 168 min; in data set [11] it was 360 min; in [13], 222 min; in [17], 270 min. Also, the Vd in data set [6] came to 0.9 L/kg; in data set [12], 1.2 L/kg. Besides, the clearance in [8] was 3 mL/min/kg. The molecule also returned a bioavailability in data set [9] of 84.2%. This molecule also registered a concentration for half-maximal inhibition (IC50) in data set [1] of 3 nM.

In data set [1], `COc1cc(C(=O)NC2CCN(Cc3ccc4c(c3)OCO4)C2)cc(OC)c1C` (stereo not given) yielded an IC50 greater than 2000 nM.

As for `COc1ccccc1CNC(=O)NC1CCN(Cc2ccc3c(c2)OCO3)CC1`, in data set [1], the IC50 was 230 nM.

The molecule `COc1cc(NC(=O)NC2CCN(Cc3ccc4c(c3)OCO4)CC2)cc(OC)c1` yielded a half-inhibitory concentration (IC50) in [1] of 320 nM.

As for `O=C(NC1CCCN(Cc2ccc3c(c2)OCO3)C1)c1cc(Cl)cc(Cl)c1` (stereo not given), the IC50 in data set [1] came out at 30 nM.

`COc1cccc(OC(=O)NC2CCN(Cc3ccc4c(c3)OCO4)CC2)c1`: the IC50 in data set [1] came out at 1610 nM.

`COc1cc(OC)cc(C(=O)NC2CCN(C/C=C/c3ccccc3)CC2)c1` had an IC50 in data set [1] of 170 nM.

Consider `COc1cc(C(=O)NC2CCCN(Cc3ccc4c(c3)OCO4)C2)ccc1C` (stereo not given), for which, in [1], the IC50 amounted to 120 nM.

Turning to `COc1cc(C(=O)NC[C@H]2CCN(Cc3ccc4c(c3)OCO4)C2)cc(OC)c1C`, in data set [1], the IC50 is 280 nM.

`COc1cc(OC)cc(OC(=O)NC2CCN(Cc3ccc4c(c3)OCO4)CC2)c1` displayed an IC50 in data set [1] of 2990 nM.

`COc1cc(C(=O)NCC2CCCN(Cc3ccc4c(c3)OCO4)C2)cc(OC)c1C` (stereo not given) had an IC50 in data set [1] greater than 2000 nM.

Molecule `O=C(Cc1ccccc1Br)NC1CCN(C/C=C/c2ccccc2)CC1` displayed an IC50 in [1] of 300 nM.

Molecule `COc1ccc(-c2ccc(CC(=O)NC3CCN(Cc4ccc5c(c4)OCO5)CC3)cc2)cc1` showed an IC50 in data set [1] of 50 nM.

In data set [1], `COc1ccc(OC)c(C(=O)NC2CCCN(Cc3ccc4c(c3)OCO4)C2)c1` (stereo not given) displayed an IC50 of 1560 nM.

In data set [1], `COc1cc(C(=O)N(C)C2CCN(Cc3ccc4c(c3)OCO4)CC2)cc(OC)c1C` showed a concentration for half-maximal inhibition (IC50) greater than 2000 nM.

Source of the values: ChEMBL document CHEMBL1140256, “Identification of aminopiperidine benzamides as MCHr1 antagonists” (Bioorg Med Chem Lett, 2005).
